# In article PMC10502027, “Class III hybrid cluster protein homodimeric architecture shows evolutionary relationship with Ni, Fe-carbon monoxide dehydrogenases” (Nature Communications, 2023):
# Biological target: T1, Mm HCP (Methanothermobacter marburgensis, UniProt D9PYV4)
# T1 construct: full length with N-terminal rubredoxin domain (Met1-Arg52), C-terminal His6-tag, recombinant from E. coli C41(DE3) with pBBRISC, anaerobically purified; homodimer
# T1 sequence (D9PYV4 1-491): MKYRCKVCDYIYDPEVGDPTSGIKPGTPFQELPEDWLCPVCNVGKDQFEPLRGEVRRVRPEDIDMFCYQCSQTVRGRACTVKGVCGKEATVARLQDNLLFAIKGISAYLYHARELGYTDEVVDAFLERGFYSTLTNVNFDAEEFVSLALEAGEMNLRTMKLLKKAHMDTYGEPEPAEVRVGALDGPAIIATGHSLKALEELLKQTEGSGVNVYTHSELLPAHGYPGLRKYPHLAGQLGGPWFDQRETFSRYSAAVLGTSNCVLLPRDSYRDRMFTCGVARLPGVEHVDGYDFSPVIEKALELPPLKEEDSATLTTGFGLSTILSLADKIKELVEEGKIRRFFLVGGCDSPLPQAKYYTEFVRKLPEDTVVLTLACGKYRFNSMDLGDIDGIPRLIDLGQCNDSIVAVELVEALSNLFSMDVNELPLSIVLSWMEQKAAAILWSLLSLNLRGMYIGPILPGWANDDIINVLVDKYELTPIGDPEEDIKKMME
# Format: binding
structure (smiles),measurement,value
[S]12[Fe]3[S]4[Fe]1[S]1[Fe]2[S]3[Fe]41 [[4Fe-4S] cluster],"X-ray crystal structure, 2.8 Å","The Fe ions, [4Fe-4S] cluster and hybrid cluster ([4Fe-2S-3O] cluster) are represented as spheres"
